Results published in patent US20120122843A1, “Compounds and Their Use for Treatment of Amyloid Beta-Related Diseases” (ASTRAZENECA AB, priority 2010, published 2012).
pIC50: −log10 of the molar value. Values belong to the molecule of their own block, whether it stands above or below them.

What was measured:
Aβ42 = Aβ42 release from HEK cells stably expressing APPswe (MSD electrochemiluminescence); assay type: cell-based, Human; settings: 4-6 h incubation with test compound, Aβ42 secreted to cell medium
Protocol: The level of activity of the compounds on Aβ formation was tested using the following method:
Compounds were diluted in 100% DMSO and stored at […] prior to use. Human Embryonic Kidney (HEK) cell line stably expressing APP with the Swedish mutation (APPswe) were cultured using Dulbecco's Modified Eagles medium (DMEM) supplied with […] glucose, Na-pyruvate and GlutaMAX with 10% FBS, 100 U/ml penicillin-streptomycin (PEST) respectively, 1× non-essential amino acids (NEAA), […] Hepes, 100 μg/ml Zeocine. Cells at about 80% confluence were washed with PBS, detached from culture flasks using 1× Trypsin/EDTA diluted in PBS, re-suspended in cell media and plated in 384-well poly-d-lysine coated cell culture plates at about 10000-15000 cells/well, in 25 μL cell media. Optionally, cryo-preserved cells (frozen and stored at −140° C. in 90% cell media and 10% DMSO) were thawed, washed and plated as above. Next the cells were incubated for 15-24 h at 37° C. and 5% CO2, after which cell medium was changed. Fresh medium containing test compound diluted ×200 from prepared compound plate was added to the cells before further incubation for 4-6 hours at 37° C. and 5% CO2. After incubation with test compound the amount of Aβ peptides, including Aβ42, Aβ40, Aβ39, Aβ38 and Aβ37, as well as total Aβ levels, secreted to cell medium was analyzed using the electrochemiluminescence assay technology from Meso Scale Discovery (MSD), in combination with specific antibodies raised against the different Aβ peptides. Aβ42, Aβ40 and Aβ38 antibodies were purchased from MSD and Aβ37 and Aβ39 were made in house. Total Aβ was measured using a combination of 6E10 and 4G8 anti Aβ antibodies from MSD. Potential cytotoxic effects of the compounds were usually assayed by measuring the ATP content (ViaLight) from cell lysate.

Notch = assay: Release and translocation of Notch intracellular domain into the nucleus, HEK/AENotch cells (NICD immunostaining, ImageXpress); assay type: cell-based, Human; settings: 3 μM Lactacystin, 4-6 h incubation, nucleus/cytosol NICD fluorescence ratio
Protocol: The level of activity of the compounds on release and translocation of Notch intracellular domain into the cell nucleus was tested using the following method:
Compounds were diluted in 100% DMSO and stored at […] prior to use. Human Embryonic Kidney cell line overexpressing Notchl-E-human-myc construct (referred to as HEK/AENotch) were cultured in T75 cm^2 or T225 cm^2 cell culture flasks using Dulbecco's Modified Eagles medium (DMEM) supplemented with […] glucose, Na-pyruvate and GlutaMAX with 10% FBS, 100 U/ml penicillin-streptomycin (PEST) respectively, 1× non-essential amino acids (NEAA), […] Hepes and 100 μg/ml Hygromycin. Cells at about 80% confluence were washed with PBS, detached from the flask bottom using 1× Trypsin/EDTA diluted in PBS, re-suspended in cell media and plated in 384-well plates at about 10000 cells/well, in 25 μL cell media. Optionally, cryo-preserved cells (frozen and stored at −140° C. in 90% cell media and 10% DMSO) were thawed, washed and plated as above. Next the cells were incubated for 15-24 h at 37° C. and 5% CO2, after which cell medium was replaced with fresh medium containing 3 μM Lactacystin and test compound diluted ×200 from prepared compound plate giving 0.5% final DMSO concentration, and the highest compound concentration typically 25 μM. Cells were then incubated 4-6 h with test compound before being fixed, washed and immunostained with NICD antibody (rabbit Notch 1 (C-20)). Image acquisition of cytosolic/membrane and nuclear fluorescence as well as subsequent analysis of the nucleus and cytosolic fluorescence ratio was carried out using ImageXpress. Potential cytotoxic effects of the compounds were usually assayed by analysis of nucleus area or cell number.

[1] = Homo sapiens, HEK293, HEK cells expressing APPswe

SMILES: Cc1ncn(-c2ccc(Nc3ccc4c(n3)OC(c3ccc(Cl)cc3)CN(C)C4)nc2)n1 (stereo not shown) [Example 24, 2-(4-Chlorophenyl)-4-methyl-N-(5-(3-methyl-1H-1,2,4-triazol-1-yl)pyridin-2-yl)-2,3,4,5-tetrahydropyrido[3,2-f][1,4]oxazepin-8-amine]
pIC50 (Aβ42; [1]): 7.09
pIC50 (Notch; Homo sapiens): < 5.10

SMILES: COc1nc(Nc2cc(C)c3c(n2)OC(CC(F)(F)F)CN(C)C3)ccc1-c1cnn(C)c1 (stereo not shown) [Example 2, N-(6-Methoxy-5-(1-methyl-1H-pyrazol-4-yl)pyridin-2-yl)-4,6-dimethyl-2-(2,2,2-trifluoroethyl)-2,3,4,5-tetrahydropyrido[3,2-f][1,4]oxazepin-8-amine]
pIC50 (Aβ42; [1]): 7.64
pIC50 (Notch; Homo sapiens): 5.94

SMILES: COc1nc(Nc2cc(C)c3c(n2)OC(c2nc(C)cs2)CN(C)C3)ccc1-c1cnn(C)c1 (single isomer, unassigned) [Example 22, N-(6-Methoxy-5-(1-methyl-1H-pyrazol-4-yl)pyridin-2-yl)-4,6-dimethyl-2-(4-methylthiazol-2-yl)-2,3,4,5-tetrahydropyrido[3,2-f][1,4]oxazepin-8-amine]
pIC50 (Aβ42; HEK cells expressing APPswe): 8.00
pIC50 (Notch; Homo sapiens): 5.77

SMILES: COc1nc(Nc2ccc3c(n2)OC(C2CC2)CN(C)C3C)ccc1-c1cnn(C)c1 (single isomer, unassigned) [Example 20, 2-Cyclopropyl-N-(6-methoxy-5-(1-methyl-1H-pyrazol-4-yl)pyridin-2-yl)-4,5-dimethyl-2,3,4,5-tetrahydropyrido[3,2-f][1,4]oxazepin-8-amine]
pIC50 (Aβ42; HEK cells expressing APPswe): 7.04
pIC50 (Notch): < 5.10

SMILES: COc1nc(Nc2ccc3c(n2)OC(CC(F)(F)F)CN(C)C3)ccc1-c1ccnc(C)c1 (stereo not shown) [Example 8, (2-Methoxy-2′-methyl-[3,4′]bipyridinyl-6-yl)-[6-methyl-8-(2,2,2-trifluoro-ethyl)-5,6,7,8-tetrahydro-9-oxa-1,6-diaza-benzocyclohepten-2-yl]-amine]
pIC50 (Aβ42; [1]): 8.30
pIC50 (Notch; Homo sapiens): 5.49

SMILES: COc1nc(Nc2ccc3c(n2)OC(c2nc(C)cs2)CN(C)C3)ccc1-c1cnn(C)c1 (single isomer, unassigned; (-)) [Example 11, (−)-N-(6-Methoxy-5-(1-methyl-1H-pyrazol-4-yl)pyridin-2-yl)-4-methyl-2-(4-methylthiazol-2-yl)-2,3,4,5-tetrahydropyrido[3,2-f][1,4]oxazepin-8-amine]
pIC50 (Aβ42; HEK cells expressing APPswe): 7.85
pIC50 (Notch; Homo sapiens): 5.84

SMILES: COc1nc(Nc2ccc3c(n2)OC(c2nc(C)cs2)C(C)N(C)C3)ccc1-c1cnn(C)c1 (single isomer, unassigned) [Example 30, N-(6-Methoxy-5-(1-methyl-1H-pyrazol-4-yl)pyridin-2-yl)-3,4-dimethyl-2-(4-methylthiazol-2-yl)-2,3,4,5-tetrahydropyrido[3,2-f][1,4]oxazepin-8-amine]
pIC50 (Aβ42; HEK cells expressing APPswe): 8.15
pIC50 (Notch): < 4.60

SMILES: COc1nc(Nc2ccc3c(n2)OC(C2CC2)CN(C)C3C)ccc1-c1cnn(C)c1 (single isomer, unassigned) [Example 17, 2-Cyclopropyl-N-(6-methoxy-5-(1-methyl-1H-pyrazol-4-yl)pyridin-2-yl)-4,5-dimethyl-2,3,4,5-tetrahydropyrido[3,2-f][1,4]oxazepin-8-amine]
pIC50 (Aβ42; HEK cells expressing APPswe): 7.85
pIC50 (Notch; Homo sapiens): < 5.10

SMILES: COc1nc(Nc2ccc3c(n2)OC(CC(F)(F)F)CN(C)C3)ccc1-c1cc(C)ncn1 (stereo not shown) [Example 7, [6-Methoxy-5-(6-methyl-pyrimidin-4-yl)-pyridin-2-yl]-[6-methyl-8-(2,2,2-trifluoro-ethyl)-5,6,7,8-tetrahydro-9-oxa-1,6-diaza-benzocyclohepten-2-yl]-amine]
pIC50 (Aβ42; [1]): 6.87
pIC50 (Notch; Homo sapiens): < 4.60

SMILES: COc1nc(Nc2ccc3c(n2)OC(CC(F)(F)F)CN(C)C3C)ccc1-c1cnn(C)c1 (single isomer, unassigned) [Example 34, N-(6-Methoxy-5-(1-methyl-1H-pyrazol-4-yl)pyridin-2-yl)-4,5-dimethyl-2-(2,2,2-trifluoroethyl)-2,3,4,5-tetrahydropyrido[3,2-f][1,4]oxazepin-8-amine]
pIC50 (Aβ42; HEK cells expressing APPswe): 7.80
pIC50 (Notch): < 4.60

Continued, in another order:

pIC50 (Aβ42; [1]): 8.00
SMILES: COc1nc(Nc2ccc3c(n2)O[C@H](c2ccc(F)cn2)CN(C)C3C)ccc1-n1cnc(C)c1 (single isomer, unassigned; (-)) [Example 52]
pIC50 (Notch; Homo sapiens): 5.14

pIC50 (Aβ42; [1]): 7.55
SMILES: COc1nc(Nc2ccc3c(n2)OC(c2ncc(C)s2)CN(C)C3)ccc1-c1cnn(C)c1 (stereo not shown) [Example 39, N-(6-Methoxy-5-(1-methyl-1H-pyrazol-4-yl)pyridin-2-yl)-4-methyl-2-(5-methylthiazol-2-yl)-2,3,4,5-tetrahydropyrido[3,2-f][1,4]oxazepin-8-amine]
pIC50 (Notch; Homo sapiens): < 4.60

pIC50 (Aβ42; [1]): 7.21
SMILES: Cc1cn(-c2ccc(Nc3ccc4c(n3)OC(CC(F)(F)F)CN(C)C4)nc2C#N)cn1 (stereo not shown) [Example 48]
pIC50 (Notch; Homo sapiens): < 4.60

pIC50 (Aβ42; [1]): 8.40
SMILES: COc1nc(Nc2ccc3c(n2)OC(CC(F)(F)F)CN(C)C3)ccc1-c1cnc(C)o1 (stereo not shown) [Example 47, N-[6-Methoxy-5-(2-methyloxazol-5-yl)-2-pyridyl]-4-methyl-2-(2,2,2-trifluoroethyl)-3,5-dihydro-2H-pyrido[3,2-f][1,4]oxazepin-8-amine]
pIC50 (Notch; Homo sapiens): < 4.60

pIC50 (Aβ42; HEK cells expressing APPswe): 7.92
SMILES: COc1nc(Nc2ccc3c(n2)OC(CC(F)(F)F)CN(C)C3C)ccc1-c1cnn(C)c1 (single isomer, unassigned) [Example 36, N-(6-Methoxy-5-(1-methyl-1H-pyrazol-4-yl)pyridin-2-yl)-4,5-dimethyl-2-(2,2,2-trifluoroethyl)-2,3,4,5-tetrahydropyrido[3,2-f][1,4]oxazepin-8-amine]
pIC50 (Notch): < 4.60

pIC50 (Aβ42; HEK cells expressing APPswe): 8.15
SMILES: COc1nc(Nc2ccc3c(n2)OC(c2nc(C)cs2)C(C)N(C)C3)ccc1-n1cnc(C)c1 (single isomer, unassigned; (-)) [Example 59, (−)-N-(6-Methoxy-5-(4-methyl-1H-imidazol-1-yl)pyridin-2-yl)-3,4-dimethyl-2-(4-methylthiazol-2-yl)-2,3,4,5-tetrahydropyrido[3,2-f][1,4]oxazepin-8-amine]
pIC50 (Notch; Homo sapiens): < 4.60

pIC50 (Aβ42; [1]): 8.05
SMILES: COc1nc(Nc2ccc3c(n2)OC(c2ncc(C)s2)CN(C)C3)ccc1-n1cnc(C)c1 (stereo not shown) [Example 40, N-(6-Methoxy-5-(4-methyl-1H-imidazol-1-yl)pyridin-2-yl)-4-methyl-2-(5-methylthiazol-2-yl)-2,3,4,5-tetrahydropyrido[3,2-f][1,4]oxazepin-8-amine]
pIC50 (Notch; Homo sapiens): 5.44

pIC50 (Aβ42; HEK cells expressing APPswe): 7.22
SMILES: COc1nc(Nc2ccc3c(n2)O[C@H](c2ccc(F)cn2)CN(C)C3C)ccc1-c1cnn(C)c1 (single isomer, unassigned) [Example 50]
pIC50 (Notch): 5.64

pIC50 (Aβ42; HEK cells expressing APPswe): 7.74
SMILES: COc1nc(Nc2ccc3c(n2)OC(CCC(F)(F)F)CN(C)C3)ccc1-c1cnn(C)c1 (single isomer, unassigned; (-)) [Example 58, (−)-N-[6-Methoxy-5-(1-methylpyrazol-4-yl)-2-pyridyl]-4-methyl-2-(3,3,3-trifluoropropyl)-3,5-dihydro-2H-pyrido[3,2-f][1,4]oxazepin-8-amine]
pIC50 (Notch): < 4.60

pIC50 (Aβ42; HEK cells expressing APPswe): 8.05
SMILES: COc1nc(Nc2ccc3c(n2)OC(CC(CF)CF)CN(C)C3)ccc1-n1cnc(C)c1 (single isomer, unassigned; (-)) [Example 68, (−)-[8-(3-Fluoro-2-fluoromethyl-propyl)-6-methyl-5,6,7,8-tetrahydro-9-oxa-1,6-diaza-benzocyclohepten-2-yl]-[6-methoxy-5-(4-methyl-imidazol-1-yl)-pyridin-2-yl]-amine]
pIC50 (Notch): < 4.60
